Source: BindingDB's records for doi:10.1021/jm00396a006 (Upjohn, 1988)
Numbered stars: 1 amine (or outer) side, 2 acyl side, 3 side chain; on linkers, the order of the positions; unused ones are H or OH. Square brackets hold non-standard residues; d marks the D form. Peptide text beside a SMILES is read from it. * marks the point of attachment. ξ: configuration not given here. Sta(3ξ) = CC(C)C[C@H](N[*:1])C(O)CC(=O)[*:2]; X1 = CC(C)CC(N[*:1])C(O)CC(=O)[*:2]; For = O=C*

Molecular target: Renin (Sus scrofa)
Assay: In vitro inhibitory activity towards porcine kidney renin

Row | IC50 [nM] | SMILES
1 | 1500 | CC[C@H](C)[C@H](NC(=O)CC(O)[C@H](CC(C)C)NC(=O)[C@H](Cc1cnc[nH]1)NC(=O)[C@H](Cc1ccccc1)NC(=O)[C@@H]1CCCN1C(=O)[C@H](Cc1cnc[nH]1)NC(C)=O)C(N)=O (stereo partly drawn) [Ac-His-Pro-Phe-His-Sta-Ile-NH2] (Ac-HPFH[Sta(3ξ)]I-NH2)
2 | 120 | CC[C@H](C)[C@H](NC(=O)CC(O)[C@H](CC(C)C)NC(=O)[C@H](Cc1cnc[nH]1)NC(=O)[C@H](Cc1ccccc1)NC(=O)[C@@H]1CCCN1C(=O)[C@H](Cc1cn(C=O)c2ccccc12)NC(C)=O)C(N)=O (stereo partly drawn) [Ac-Ftr-Pro-Phe-His-Sta-Ile-NH2]
3 | 4.9 | CC(=O)N[C@@H](Cc1cn(C=O)c2ccccc12)C(=O)N1CCC[C@H]1C(=O)N[C@@H](Cc1ccccc1)C(=O)N[C@@H](Cc1cnc[nH]1)C(=O)NC(CC(C)C)C(O)CC(=O)N[C@H](C(=O)N[C@@H](Cc1cn(C=O)c2ccccc12)C(N)=O)C(C)C (stereo partly drawn) [Ac-Ftr-Pro-Phe-His-Sta-Val-Ftr-NH2] (Ac-W(For)PFH[X1]VW(For)-NH2)
